This is an account of results in article PMC10920890, “Biosensor and machine learning-aided engineering of an amaryllidaceae enzyme” (Nature Communications, 2024).

In this assay the target is RamR (Salmonella enterica, UniProt Q8ZR43, K63T/L66M/C134D/S137G). To be noted: variant 4NB2.1 (4NB2); LB medium, 37 °C; whole-cell biosensor.

pEC50: −log10 of the molar value.

Chain of RamR (Q8ZR43 whole entry K63T/L66M/C134D/S137G): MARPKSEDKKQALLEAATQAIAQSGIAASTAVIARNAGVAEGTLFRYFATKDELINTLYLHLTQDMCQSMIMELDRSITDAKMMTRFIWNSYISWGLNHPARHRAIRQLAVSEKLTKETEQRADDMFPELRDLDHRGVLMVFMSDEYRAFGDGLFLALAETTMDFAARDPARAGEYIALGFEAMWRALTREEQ

As to `COc1ccc(CNCCc2ccc(O)cc2)cc1O` [4′-O-methylnorbelladine], the pEC50 (in general, the negative decadic logarithm of the EC50, by convention in mol/L) was 4.70.
